Test systems include HOP-18; T47D; SF-539; COLO 205; U-251; SK-MEL-2; SNB-78; DU-145; MDA-MB-231; SR; A549; DLD-1; M14; NCI-H522; Hs-578T; TK-10; UACC-257; SNB-75; IGROV-1; SF-268.
Assay in all cases: inhibition of tumour cell growth, NCI panel, 48 h

SMILES strings stand for the structures. Values joined by “and” are separate entries in the source; they are usually repeats but may differ in a detail not shown here. Equal values may be shown once.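 Where inhibition never reached the appropriate level, the endpoint shown equals the highest concentration tested. Otherwise, values were interpolated linearly from a five-concentration, 48-hour dose response in 96-well plates. Abbreviation: GI50, concentration required for 50% inhibition of growth.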 Active and inactive are the calls of the source. No stated cut-off is given here; in the data, active = GI50 up to about 1.1 µM and inactive = higher.

Turning to `Cc1c(Cl)cccc1NC(=O)CC1Sc2ccccc2NC1=O` (configuration not stated), the GI50 was 13.2 µM (inactive) and 15.1 µM (inactive) with HOP-18; 25.5 µM (inactive) in the test on T47D; 17.9 µM (inactive) and 20.9 µM (inactive) in the test on SF-539; 46.3 µM (inactive) and 31.4 µM (inactive) in the test on COLO 205; 14.7 µM (inactive) and 17.3 µM (inactive) with U-251; 16.4 µM (inactive) and 17.9 µM (inactive) in the test on SK-MEL-2. The GI50 with SNB-78 is 30 µM (inactive) and 48.6 µM (inactive); in the test on DU-145 it was 53.7 µM (inactive); in the test on MDA-MB-231, 14 µM (inactive); in the test on SR, 6.12 µM (inactive); in the test on A549, 19.8 µM (inactive) and 29.2 µM (inactive); in the test with DLD-1, 35 µM (inactive) and 24.1 µM (inactive). Moreover, the GI50 with M14 is 32.3 µM (inactive) and 22.6 µM (inactive); in the test on NCI-H522, 27.7 µM (inactive) and 21 µM (inactive); with Hs-578T it was 2.99 µM (inactive).
Consider `Cn1c(O)c(C(=O)Nc2ccc([N+](=O)[O-])cc2)c(=O)n(C)c1=S`, for which the GI50 is 2.84 µM (inactive) in the test with HOP-18; 1.9 µM (inactive) in the test on SF-539; 3.31 µM (inactive) in the test on COLO 205; 2.23 µM (inactive) in the test on U-251; 1.82 µM (inactive) with SK-MEL-2; 2.77 µM (inactive) in the test on TK-10. Moreover, the GI50 in the test on SNB-78 was 2.18 µM (inactive); in the test on DU-145 it was 2.02 µM (inactive); in the test with UACC-257 it was 2.32 µM (inactive); in the test with MDA-MB-231, 2.54 µM (inactive); in the test on SNB-75, 1.63 µM (inactive); in the test with SR, 3.63 µM (inactive). For the same molecule, the GI50 with A549 was 3.42 µM (inactive); in the test with IGROV-1 it was 2.55 µM (inactive); with DLD-1 it was 3.7 µM (inactive); in the test with M14, 3.37 µM (inactive); in the test with NCI-H522, 2.32 µM (inactive); with SF-268 it was 2.64 µM (inactive). For the same molecule, the GI50 in the test on Hs-578T is 0.617 µM (active).
Regarding `CCCCCCCCCCCCCC(=O)NO`, the GI50 is 34.4 µM (inactive) in the test with HOP-18; 14.1 µM (inactive) with SF-539; 10.5 µM (inactive) with COLO 205; 10.7 µM (inactive) with U-251; 23.5 µM (inactive) with SK-MEL-2; 19.9 µM (inactive) in the test on TK-10. In addition, the GI50 with SNB-78 was 19.8 µM (inactive); in the test on DU-145, 3.35 µM (inactive); in the test on UACC-257, 29.2 µM (inactive); with MDA-MB-231 it was 7.01 µM (inactive); in the test with SNB-75, 11.4 µM (inactive); with SR, 0.518 µM (active). Moreover, the GI50 in the test on A549 was 9.91 µM (inactive); with IGROV-1, 17.4 µM (inactive); in the test on DLD-1, 13.2 µM (inactive); with M14, 15.8 µM (inactive); in the test with NCI-H522, 1.01 µM (active); in the test on SF-268, 7.78 µM (inactive).

The values above are taken from ChEMBL document CHEMBL1201862, “PubChem BioAssay data set” (2004).
